Tests used:
[1] = tested on: velvetleaf; assay: Test A pre-/postemergence greenhouse test; assay type: in vivo, Abutilon theophrasti; settings: for Velvetleaf plant response rating: 0 to 100 scale; for Plant response rating, Velvetleaf: 0 to 100 scale where 0 is no effect and 100 is complete control
In short: (§1)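 Greenhouse herbicide screen, pre- and postemergence in parallel. Soil: loam plus sand. Formulation: non-phytotoxic solvent mix with surfactant. Postemergence stage: one to two leaves, 2–10 cm height. Evaluation: visual injury, compared with untreated controls, about 10 days after treatment.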

[2] = tested on: pigweed; assay: Test C pre-/postemergence test; assay type: in vivo, Amaranthus retroflexus
In short: (§2)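 Seeds were planted and treated preemergence with test chemical in a non-phytotoxic solvent mixture containing surfactant. Postemergence applications of the same formulation went onto plants 2 to 18 cm tall (1- to 4-leaf stage). A dash marks no test result.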

[3] = tested on: yellow nutsedge; assay: Test C pre-/postemergence test; assay type: in vivo, Cyperus esculentus
In short: as §2

[4] = tested on: duck salad; assay: Test C flooded paddy test; assay type: in vivo, Heteranthera limosa; settings: Flood
In short: (§3)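 Visual injury ratings against untreated controls, taken 13 to 15 days after compound was added to paddy water standing 3 cm above the soil.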

[5] = tested on: Italian ryegrass; assay: Test C pre-/postemergence test; assay type: in vivo, Lolium multiflorum
In short: as §2

[6] = tested on: corn; assay: Test A pre-/postemergence greenhouse test; assay type: in vivo, Zea mays; settings: for Corn plant response rating: 0 to 100 scale; for Plant response rating, Corn: 0 to 100 scale where 0 is no effect and 100 is complete control
In short: as §1

[7] = tested on: corn; assay: Test C pre-/postemergence test; assay type: in vivo, Zea mays; settings: for Plant response rating (0 to 100), Corn: 250 g ai/ha
In short: as §2

[8] = tested on: barnyardgrass; assay: Test A pre-/postemergence greenhouse test; assay type: in vivo, Echinochloa crus-galli; settings: for Barnyardgrass plant response rating: 0 to 100 scale; for Plant response rating, Barnyardgrass: 0 to 100 scale where 0 is no effect and 100 is complete control
In short: as §1

[9] = tested on: umbrella sedge; assay: Test C flooded paddy test; assay type: in vivo, Cyperus difformis; settings: Flood
In short: as §3

[10] = tested on: johnsongrass; assay: Test C pre-/postemergence test; assay type: in vivo, Sorghum halepense; settings: for Plant response rating (0 to 100), Johnsongrass: 250 g ai/ha
In short: as §2

[11] = tested on: crabgrass; assay: Test A pre-/postemergence greenhouse test; assay type: in vivo, Digitaria sanguinalis; settings: for Crabgrass, Large plant response rating: 0 to 100 scale; for Plant response rating, Crabgrass, Large: 0 to 100 scale where 0 is no effect and 100 is complete control
In short: as §1

[12] = tested on: soybean; assay: Test C pre-/postemergence test; assay type: in vivo, Glycine max
In short: as §2

[13] = tested on: barnyardgrass; assay: Test C flooded paddy test; assay type: in vivo, Echinochloa crus-galli; settings: Flood
In short: as §3

[14] = tested on: Goosegrass; assay: Test C pre-/postemergence test; assay type: in vivo, Eleusin indica; settings: for Plant response rating (0 to 100), Goosegrass: 250 g ai/ha
In short: as §2

[15] = tested on: green foxtail; assay: Test C pre-/postemergence test; assay type: in vivo, Setaria viridis; settings: for Plant response rating (0 to 100), Foxtail, Green: 250 g ai/ha
In short: as §2

[16] = tested on: bermudagrass; assay: Test C pre-/postemergence test; assay type: in vivo, Cynodon dactylon; settings: for Plant response rating (0 to 100), Bermudagrass: 250 g ai/ha
In short: as §2

[17] = tested on: crabgrass; assay: Test C pre-/postemergence test; assay type: in vivo, Digitaria sanguinalis; settings: for Plant response rating (0 to 100), Crabgrass, Large: 250 g ai/ha
In short: as §2

[18] = Postemergence, 125 g ai/ha, 0 is no effect, 100 is complete control
[19] = Postemergence, 500 g ai/ha, 0 is no effect, 100 is complete control
[20] = Preemergence, 125 g ai/ha, 0 no effect, 100 complete control
[21] = 62 g ai/ha, Preemergence, scale 0 to 100
[22] = Preemergence, 31 g ai/ha, scale 0 to 100 (0 no effect, 100 complete control)
[23] = 31 g ai/ha, scale 0 to 100 (0 no effect, 100 complete control)
[24] = 62 g ai/ha, scale 0 to 100, 0 no effect, 100 complete control, 13 to 15 days
[25] = 125 g ai/ha, scale 0 to 100, 0 no effect, 100 complete control, 13 to 15 days
[26] = 250 g ai/ha, scale 0 to 100, 0 no effect, 100 complete control, 13 to 15 days
[27] = preemergence, 125 g ai/ha, scale 0 (no effect) to 100 (complete control)
[28] = 31 g ai/ha, Preemergence, scale 0 to 100
[29] = 62 g ai/ha, preemergence, scale 0 (no effect) to 100 (complete control)
[30] = 250 g ai/ha, scale 0 to 100 (0 no effect, 100 complete control)

Cc1cc[n+]([O-])c([S+]([O-])Cc2c(C(F)(F)F)nn(C)c2OCC(F)(F)F)c1 (racemic) [Compound 30]
90: Velvetleaf plant response rating [1, 20] | Barnyardgrass plant response rating [8, 19] | Crabgrass, Large plant response rating [11, 19]
0: Plant response rating, Ryegrass, Italian [5, 22] | Corn plant response rating [6, 20] | Plant response rating, Barnyardgrass [13, 23] | Plant response rating, Barnyardgrass [13, 24]
50: Velvetleaf plant response rating [1, 18] | Corn plant response rating [6, 18]
70: Velvetleaf plant response rating [1, 19] | Nutsedge, Yellow plant response rating [3, 21] | Ryegrass, Italian plant response rating [5, 21] | Plant response rating, Corn ([6]; Preemergence, 500 g ai/ha) | Barnyardgrass plant response rating [8, 18] | Crabgrass, Large plant response rating [11, 18]
75: Plant response rating, Ducksalad [4, 24]
65: Plant response rating, Nutsedge, Yellow [3, 22] | Plant response rating, Ducksalad [4, 23] | Plant response rating, Barnyardgrass [13, 26]
100: Plant response rating, Velvetleaf ([1]; Preemergence, 500 g ai/ha) | Pigweed plant response rating [2, 21] | Plant response rating, Pigweed [2, 22] | Plant response rating, Ducksalad [4, 25] | Plant response rating, Ducksalad [4, 26] | Barnyardgrass plant response rating [8, 20] | Plant response rating, Barnyardgrass ([8]; Preemergence, 500 g ai/ha) | Plant response rating, Sedge, Umbrella [9, 24] | Plant response rating, Sedge, Umbrella [9, 25] | Plant response rating, Sedge, Umbrella [9, 26] | Johnsongrass plant response rating [10, 21] | Plant response rating (0 to 100), Johnsongrass ([10]; Preemergence) | Crabgrass, Large plant response rating [11, 20] | Plant response rating, Crabgrass, Large ([11]; Preemergence, 500 g ai/ha) | Goosegrass plant response rating [14, 21] | Plant response rating (0 to 100), Goosegrass ([14]; Preemergence) | Foxtail, Green plant response rating [15, 21] | Plant response rating, Foxtail, Green [15, 22] | Plant response rating (0 to 100), Foxtail, Green ([15]; Preemergence) | Bermudagrass plant response rating ([16]; 62 g ai/ha, Preemergence, scale 0 to 100 (0 no effect, 100 complete control)) | Plant response rating, Bermudagrass [16, 22] | Plant response rating (0 to 100), Bermudagrass ([16]; Preemergence) | Bermudagrass plant response rating [16, 27] | Plant response rating (0 to 100), Crabgrass, Large ([17]; Preemergence)
85: Corn plant response rating [7, 27] | Plant response rating, Johnsongrass [10, 22]
20: Plant response rating, Barnyardgrass [13, 25]
5: Plant response rating, Corn [7, 22]
40: Corn plant response rating [7, 21]
60: Corn plant response rating [6, 19] | Plant response rating, Soybean [12, 22]
80: Plant response rating, Sedge, Umbrella [9, 23]
98: Plant response rating (0 to 100), Corn ([7]; Preemergence) | Plant response rating, Goosegrass [14, 22] | Crabgrass, Large plant response rating [17, 21] | Plant response rating, Crabgrass, Large [17, 22]

Cc1cc[n+]([O-])c(S(=O)(=O)C(C)c2c(C(F)(F)F)nn(C)c2OC(F)F)c1 (stereo not drawn) [Compound 11]
30: Corn plant response rating [6, 18] | Corn plant response rating [6, 20]
40: Velvetleaf plant response rating [1, 18] | Ryegrass, Italian plant response rating [5, 29]
75: Plant response rating, Barnyardgrass [13, 25]
100: Pigweed plant response rating [2, 28] | Pigweed plant response rating [2, 29] | Plant response rating (0 to 100), Pigweed ([2]; Preemergence, 250 g ai/ha) | Pigweed plant response rating [2, 27] | Plant response rating (0 to 100), Nutsedge, Yellow ([3]; Preemergence, 250 g ai/ha) | Nutsedge, Yellow plant response rating [3, 27] | Plant response rating, Barnyardgrass ([8]; Preemergence, 500 g ai/ha) | Johnsongrass plant response rating [10, 28] | Johnsongrass plant response rating [10, 29] | Plant response rating (0 to 100), Johnsongrass ([10]; Preemergence) | Johnsongrass plant response rating [10, 27] | Plant response rating, Crabgrass, Large ([11]; Preemergence, 500 g ai/ha) | Plant response rating (0 to 100), Soybean ([12]; Preemergence, 250 g ai/ha) | Goosegrass plant response rating [14, 28] | Goosegrass plant response rating [14, 29] | Plant response rating (0 to 100), Goosegrass ([14]; Preemergence) | Goosegrass plant response rating [14, 27] | Foxtail, Green plant response rating [15, 29] | Plant response rating (0 to 100), Foxtail, Green ([15]; Preemergence) | Foxtail, Green plant response rating [15, 27] | Bermudagrass plant response rating [16, 28] | Bermudagrass plant response rating [16, 29] | Plant response rating (0 to 100), Bermudagrass ([16]; Preemergence) | Bermudagrass plant response rating [16, 27] | Crabgrass, Large plant response rating [17, 28] | Crabgrass, Large plant response rating [17, 29] | Plant response rating (0 to 100), Crabgrass, Large ([17]; Preemergence) | Crabgrass, Large plant response rating [17, 27]
70: Nutsedge, Yellow plant response rating [3, 28] | Ryegrass, Italian plant response rating [5, 27] | Barnyardgrass plant response rating [8, 18] | Crabgrass, Large plant response rating [11, 18] | Plant response rating, Barnyardgrass [13, 24]
50: Corn plant response rating [6, 19] | Corn plant response rating [7, 29]
0: Plant response rating, Ducksalad [4, 23] | Ryegrass, Italian plant response rating [5, 28] | Corn plant response rating [7, 28] | Plant response rating, Sedge, Umbrella [9, 23] | Soybean plant response rating [12, 28] | Soybean plant response rating [12, 29] | Plant response rating, Barnyardgrass [13, 23]
98: Nutsedge, Yellow plant response rating [3, 29] | Plant response rating (0 to 100), Corn ([7]; Preemergence) | Corn plant response rating [7, 27]
20: Soybean plant response rating [12, 27]
80: Velvetleaf plant response rating [1, 20] | Plant response rating (0 to 100), Ryegrass, Italian ([5]; Preemergence, 250 g ai/ha) | Barnyardgrass plant response rating [8, 19] | Crabgrass, Large plant response rating [11, 19] | Foxtail, Green plant response rating [15, 28]
90: Plant response rating, Velvetleaf ([1]; Preemergence, 500 g ai/ha) | Plant response rating, Ducksalad [4, 30] | Barnyardgrass plant response rating [8, 20] | Plant response rating, Sedge, Umbrella [9, 24] | Plant response rating, Sedge, Umbrella [9, 25] | Plant response rating, Sedge, Umbrella [9, 30] | Crabgrass, Large plant response rating [11, 20]
65: Plant response rating, Ducksalad [4, 24]
85: Plant response rating, Ducksalad [4, 25] | Plant response rating, Barnyardgrass [13, 30]
60: Velvetleaf plant response rating [1, 19] | Plant response rating, Corn ([6]; Preemergence, 500 g ai/ha)
